# ChEMBL document CHEMBL5725551, “Inhibitors of the renal outer medullary potassium channel” (2017)
# Target: T1, ATP-sensitive inward rectifier potassium channel 1 (Homo sapiens, UniProt P48048)
# T1 sequence (P48048 whole entry): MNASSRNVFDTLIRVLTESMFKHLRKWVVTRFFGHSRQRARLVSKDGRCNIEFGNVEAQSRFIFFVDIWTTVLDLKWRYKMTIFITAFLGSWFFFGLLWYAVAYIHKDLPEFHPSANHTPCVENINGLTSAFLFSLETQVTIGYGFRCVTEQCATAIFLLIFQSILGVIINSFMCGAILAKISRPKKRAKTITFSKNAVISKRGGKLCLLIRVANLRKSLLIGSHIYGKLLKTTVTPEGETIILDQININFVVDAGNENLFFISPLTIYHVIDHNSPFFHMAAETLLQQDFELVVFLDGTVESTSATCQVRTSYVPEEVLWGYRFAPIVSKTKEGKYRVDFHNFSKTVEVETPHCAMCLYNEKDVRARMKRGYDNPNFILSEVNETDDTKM
# Experiment: Thallium Flux Assay: A Thallium Flux Assay was performed on each of the final product compounds of the Examples. This assay has been described previously; see, e.g., PCT Published Application WO 2013/062900.
row,SMILES,IC50 [nM]
1,C[C@H]1C[C@]2(CC[C@@H](NCc3ccc(-n4cnnn4)nn3)CC2)C(=O)N1C1=CC(=O)OC1,30
2,CC1=C(N2C(=O)[C@]3(CC[C@H](N(C)Cc4ccc(-n5cnnn5)nn4)CC3)C[C@@H]2C)COC1=O,200
3,C[C@H]1C[C@]2(CC[C@H](NCc3ccc(-n4cnnn4)nn3)CC2)C(=O)N1C1=CC(=O)OC1,8.4
4,CC1=C(N2CC[C@]3(CC[C@@H](N(C)Cc4ccc(-n5ncnn5)nc4)CC3)C2=O)COC1=O,640
5,C[C@H]1C[C@]2(CC[C@@H](NCc3cnc(-n4cnnn4)s3)CC2)C(=O)N1C1=CC(=O)OC1,24
6,CC1=C(N2CC[C@]3(CC[C@@H](NC(C)c4cnc(-n5cnnn5)cn4)CC3)C2=O)COC1=O (stereo not given in full),170
7,CC1=C(N2C(=O)[C@]3(CC[C@H](N(C)Cc4cnc(-n5cnnn5)cn4)CC3)C[C@H]2C)COC1=O,200
8,C[C@@H]1C[C@]2(CC[C@@H](NCc3cnc(-n4cnnn4)s3)CC2)C(=O)N1C1=CC(=O)OC1,190
9,C[C@@H]1C[C@]2(CC[C@@H](NCc3ccc(-n4cnnn4)nn3)CC2)C(=O)N1C1=CC(=O)OC1,110
10,CC1=C(N2C(=O)[C@]3(CC[C@H](NCc4ccc(-n5cnnn5)nn4)CC3)C[C@@H]2C)COC1=O,40
11,CC1=C(N2C(=O)[C@]3(CC[C@H](NCc4ccc(-n5cnnn5)nn4)CC3)C[C@H]2C)COC1=O,23
12,CC1=C(N2C(=O)[C@]3(CC[C@@H](NCc4cnc(-n5cnnn5)cn4)CC3)C[C@@H]2C)COC1=O,420
13,CC1C[C@]2(CC[C@@H](NCc3ccc(-n4cnnn4)nn3)CC2)C(=O)N1C1=CC(=O)OC1 (stereo not given in full),28
14,CC1=C(N2CC[C@]3(CC[C@@H](NCc4cc(C)c(-n5cnnn5)nn4)CC3)C2=O)COC1=O,8.4
15,CC1=C(N2C(=O)[C@]3(CC[C@H](NCc4cnc(-n5cnnn5)cn4)CC3)C[C@H]2C)COC1=O,65
16,CC1=C(N2CC[C@]3(CC[C@@H](N[C@@H](C)c4ccc(-n5cnnn5)nn4)CC3)C2=O)COC1=O,320
17,CC1=C(N2CC[C@]3(CC[C@@H](N(C)Cc4cnc(-n5cnnn5)s4)CC3)C2=O)COC1=O,30
18,CC1=C(N2CCC3(CCC(NCc4ccc5c(c4C)Cn4nnnc4-5)CC3)C2=O)COC1=O (stereo not given),19
19,CC1=C(N2C(=O)[C@]3(CC[C@H](N(C)Cc4ccc(-n5cnnn5)nn4)CC3)C[C@H]2C)COC1=O,200
20,CC1=C(N2C(=O)[C@]3(CC[C@@H](N(C)Cc4cnc(-n5cnnn5)cn4)CC3)C[C@@H]2C)COC1=O,310
21,CC1=C(N2CC[C@]3(CC[C@@H](N(CCO)Cc4ccc(-n5cnnn5)nn4)CC3)C2=O)COC1=O,150
22,CC1=C(N2CC[C@]3(CC[C@@H](N(Cc4ccc(-n5cnnn5)nn4)Cc4ncco4)CC3)C2=O)COC1=O,210
23,CC1=C(N2CC[C@]3(CC[C@@H](NCc4cnc(-n5cnnn5)s4)CC3)C2=O)COC1=O,92
24,CC1C[C@]2(CC[C@@H](NCc3cnc(-n4cnnn4)cn3)CC2)C(=O)N1C1=CC(=O)OC1 (stereo not given in full),46
25,C[C@@H]1C[C@]2(CC[C@@H](N(C)Cc3ccc(-n4cnnn4)nn3)CC2)C(=O)N1C1=CC(=O)OC1,270
